From patent publication US11779592B2, “Inhibition of NGLY1 for the treatment of cancer” (University of North Texas Health Science Center, priority 2017, dated 2023)
Residues, ends and D or L forms follow the SMILES beside them. *: point of attachment. Cbz = O=C(OCc1ccccc1)*; CH2F = FC*

Legend:
human NGLY1 = molecular target: T1, human NGLY1 (Homo sapiens, UniProt Q96IV0); assay: RNase B deglycosylation assay with recombinant human NGLY1; assay type: biochemical
T1 construct: host or cells: HEK293T
T1 sequence (Q96IV0 1-654): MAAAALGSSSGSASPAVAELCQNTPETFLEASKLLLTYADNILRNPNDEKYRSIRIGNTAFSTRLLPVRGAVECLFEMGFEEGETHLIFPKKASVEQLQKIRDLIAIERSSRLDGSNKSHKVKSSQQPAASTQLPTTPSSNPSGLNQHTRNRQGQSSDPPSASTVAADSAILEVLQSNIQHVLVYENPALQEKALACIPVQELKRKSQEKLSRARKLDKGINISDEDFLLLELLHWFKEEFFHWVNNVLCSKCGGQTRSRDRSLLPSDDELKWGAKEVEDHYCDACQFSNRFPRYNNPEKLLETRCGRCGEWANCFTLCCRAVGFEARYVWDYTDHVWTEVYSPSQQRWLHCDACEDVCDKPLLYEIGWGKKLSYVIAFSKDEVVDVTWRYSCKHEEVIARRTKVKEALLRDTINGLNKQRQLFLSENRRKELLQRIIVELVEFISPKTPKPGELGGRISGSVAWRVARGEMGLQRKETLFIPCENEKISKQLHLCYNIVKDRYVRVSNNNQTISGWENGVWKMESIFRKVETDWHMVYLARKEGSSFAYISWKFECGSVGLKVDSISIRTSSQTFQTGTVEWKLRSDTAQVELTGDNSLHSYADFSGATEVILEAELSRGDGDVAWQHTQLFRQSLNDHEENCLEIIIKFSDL
Text: The computational homology model of human NGLY1 core domain was generated and used for studying interactions between NGLY1 and novel small molecules that are designed to covalently modified and inactivate the catalytic site of NGLY1. (FIG. 15A) The most favorable binding pose of Z-VAD-fmk, a short peptide with NGLY1 and caspase inhibitory activity, in the human NGLY1 homology model superimposed to the conformation of Z-VAD-fmk bound to mouse NGLY1 in a co-crystalized structure. […] RNase B (g): glycosylated RNase B. RNase B (dg): deglycosylated RNase B. Veh: vehicle (DMSO) treatment. M: molecular weight marker. Lower panel: the deglycosylation of NFE2L1 altered by the treatment of 20 μM Z-VAD-fmk and 200 μM NM-350 in bortezomib-treated HEK293T cells. The cells were pretreated with vehicle (DMSO), Z-VAD-fmk and NM-350 for 24 hours and subsequently subjected to concomitant treatment with 10 μM bortezomib for an additional 16 hours. Cell lysates reacted with and without 500 units of PNGase F for 2 hours were analyzed using Western blotting. Top arrowhead in lanes 2 and 3: fully glycosylated NFE2L1. Top arrowhead in lane 1: partially glycosylated NFE2L1. Bottom arrowhead: deglycosylated and truncated NFE2L1. […] The cell viability curve of combinatorial treatment was plotted according to the doses of dacarbazine used in the treatment. […] The cell viability curve of combinatorial treatment was plotted according to the doses of bortezomib used in the treatment. All the data of cell viability tests were presented as mean±standard deviation (n=3).
FLAG-tagged human NGLY1 was overexpressed by the transduction of the pLenti expression vector that carries a Myc-DDK-tagged-human NGLY1 open reading frame in HEK293T cells. Anti-FLAG magnetic beads (OriGene Technologies, Rockville, MD) were used to react with the lysate of HEK293T cells overnight at 4° C. in the presence of pan-protease inhibitors to purify the FLAG-tagged NGLY1. The magnetic beads were thoroughly washed using 0.5% Tween 20 in PBS for three times to minimize non-specific binding. The enrichment of recombinant human NGLY1 was checked by Western blotting of NGLY1 in the pull-down fraction. To perform RNase B deglycosylation assays, purified human NGLY1 on an equal volume of magnetic beads was incubated with PBS containing each of the indicated small molecules and control vehicle (DMSO) at 37° C. for 2 hours. The magnetic beads were then collected and resuspended in PBS containing 0.05% NP-40. Each magnetic bead suspension was mixed with 1 ug RNase B (Millipore Sigma, St. Louis, MO) that was pre-denatured using 5 mM DTT in the presence of 8M urea at 42° C. for 1 hour followed by the treatment of 25 mM iodoacetamide at room temperature for 1 hour and buffer exchange into PBS using Zeba 7K MWCO spin columns (Thermo Fisher Scientific, Carlsbad, CA). The mixtures of magnetic bead suspension and denatured RNase B were left at 37° C. for 16 hours. The proteins in each mixture were resolved by SDS-PAGE and visualized using SYPRO Ruby gel stain (Thermo Fisher Scientific, Carlsbad, CA).

SK-MEL-2 cells = assay: Cell viability test (MTT) in SK-MEL-2 cells; assay type: cell-based, human
Method: (§1) Despite the frequent failure of chemotherapy in patients with melanoma, chemotherapy remains a frontline approach for treatment, especially in many patients who cannot afford immunotherapy or targeted therapy. […] Identifying novel approaches to enhance the efficacy of chemotherapy and targeted therapy agents in melanoma will greatly benefit many cancer patients. […] The IC50 of each drug treatment in each cell clone was calculated using CalcuSyn 2.0.
(§2) The dose effect of dox-induced expression of NGLY1 shRNA in each cell clone was also determined. The IC50 of each drug treatment in each cell clone was calculated using CalcuSyn 2.0. To determine the interaction between NGLY1 knockdown and each anticancer agent, cells were exposed to four-dose combinations of dox and an anticancer agent at a fixed dose ratio. The combination index (CI) value was calculated using CalcuSyn 2.0. CI values of less than 1 are considered a synergistic interaction. […]
(§3) Cells were seeded into 96-well plates (2,500-5,000 cells/well, depending on cell types), incubated overnight, and treated as indicated. […] Reduced MTT was solubilized in DMSO for determination of absorbance at 570 nm. Absorbance of reduced MTS was directly measured in the reaction medium at 490 nm. The relative cell viability in each treatment condition was calculated based on absorbance values.

NFE2L1 = assay: Deglycosylation of NFE2L1 in bortezomib-treated HEK293T cells (Western blotting); assay type: cell-based; conditions: 24 hours pretreatment then 10 μM bortezomib 16 hours
Text: The computational homology model of human NGLY1 core domain was generated and used for studying interactions between NGLY1 and novel small molecules that are designed to covalently modified and inactivate the catalytic site of NGLY1. (FIG. 15A) The most favorable binding pose of Z-VAD-fmk, a short peptide with NGLY1 and caspase inhibitory activity, in the human NGLY1 homology model superimposed to the conformation of Z-VAD-fmk bound to mouse NGLY1 in a co-crystalized structure. […] RNase B (g): glycosylated RNase B. RNase B (dg): deglycosylated RNase B. Veh: vehicle (DMSO) treatment. M: molecular weight marker. Lower panel: the deglycosylation of NFE2L1 altered by the treatment of 20 μM Z-VAD-fmk and 200 μM NM-350 in bortezomib-treated HEK293T cells. The cells were pretreated with vehicle (DMSO), Z-VAD-fmk and NM-350 for 24 hours and subsequently subjected to concomitant treatment with 10 μM bortezomib for an additional 16 hours. Cell lysates reacted with and without 500 units of PNGase F for 2 hours were analyzed using Western blotting. Top arrowhead in lanes 2 and 3: fully glycosylated NFE2L1. Top arrowhead in lane 1: partially glycosylated NFE2L1. Bottom arrowhead: deglycosylated and truncated NFE2L1. […] The cell viability curve of combinatorial treatment was plotted according to the doses of dacarbazine used in the treatment. […]

UACC257 cells = assay: Cell viability test (MTT) in UACC257 cells; assay type: cell-based, human; conditions: 20 μM, 72-hour treatment
Method: as §1, §2, §3

MALME3M cells = assay type: cell-based; conditions: 20 μM, 72-hour treatment
Method: as §1, §2, §3

NGLY1 = NGLY1 expression in stable clones of melanoma cells (immunoblotting); assay type: cell-based, human; conditions: stable clones of MALME3M, UACC257 and SK-MEL-2 cells, 48-hour treatment of dox
Text: These NGLY1-targeting shRNA sequences and a scrambled (non-targeting) shRNA sequence were cloned into doxycycline (dox)-inducible, polycistronic green fluorescence protein (GFP)-shRNA expression constructs (a pZIP inducible lentiviral vector, TransOMIC). Stable clones have been generated with the shRNA expression constructs in multiple human melanoma cell lines, including MALME3M, UACC257, SK-MEL-2, and COLO829 melanoma cells. […] Similar knockdown effects were found in the stable clones of other melanoma cells with this particular NGLY1 shRNA sequence. […] Similar to human normal fibroblasts, normal melanocytes (FIG. 5D) and keratinocytes appeared to well tolerate NGLY1 knockdown and show no sign of increased cell death. In addition, SK-MEL-2, MALME3M cells that express inducible NGLY1 shRNA presented significant apoptosis, compared to their scrambled RNA-expressing counterparts. The expression of exogenous human NGLY1 in melanoma cells attenuated NGLY1-targeting shRNA-induced apoptosis (FIG. 5E).
The knockdown of NGLY1 expression in melanoma cells was achieved by the transduction of pZIP-TRE3GS lentiviral expression vectors that carry two independent shRNA sequences (Below; TransOMIC Technologies, Huntsville, AL). […] The expression of the shRNA sequences and an open reading frame of the ZsGreen reporter is driven by the TRE3GS doxycycline-inducible promoter. […]

[1] = system: U-251MG glioblastoma cells; assay: Cell morphology of U-251MG cells with NGLY1 knockdown; assay type: cell-based
HepG2 liver cancer cells = assay: Cell morphology of HepG2 cells with NGLY1 knockdown; assay type: cell-based
[2] = 2-hour reaction with human NGLY1

Molecule: C=CC(=O)N[C@@H](CC(=O)N[C@@H]1O[C@H](COC(C)=O)[C@@H](OC(C)=O)[C@H](OC(C)=O)[C@H]1NC(C)=O)C(=O)NCCC [NM-322, (2R,3S,4R,5R,6R)-5-acetamido-2-(acetoxymethyl)-6-((S)-3-acrylamido-4-oxo-4-(propylamino)butanamido)tetrahydro-2H-pyran-3,4-diyl diacetate]
- NGLY1 activity in the deglycosylation of denatured RNase B (human NGLY1; [2]): suppressed its activity
- suppression of cell viability in combination (SK-MEL-2 cells; in combination with dacarbazine): synergistic effect

Molecule: C=CS(=O)(=O)N[C@@H](CC(=O)N[C@@H]1O[C@H](COC(C)=O)[C@@H](OC(C)=O)[C@H](OC(C)=O)[C@H]1NC(C)=O)C(=O)NCCC [NM-348, (2R,3S,4R,5R,6R)-5-Acetamido-2-(acetoxymethyl)-6-((S)-4-oxo-4-(propylamino)-3-(vinylsulfonamido)butanamido)tetrahydro-2H-pyran-3,4-diyl diacetate]
- NGLY1 activity in the deglycosylation of denatured RNase B (human NGLY1; [2]): suppressed its activity

Molecule: CCCNC(=O)[C@H](CC(=O)N[C@@H]1O[C@H](COC(C)=O)[C@@H](OC(C)=O)[C@H](OC(C)=O)[C@H]1NC(C)=O)NC(=O)CCl [NM-350, (2R,3S,4R,5R,6R)-5-Acetamido-2-(acetoxymethyl)-6-((S)-3-(2-chloroacetamido)-4-oxo-4-(propylamino)butanamido)tetrahydro-2H-pyran-3,4-diyl diacetate]
- NGLY1 activity in the deglycosylation of denatured RNase B (human NGLY1; [2]): suppressed its activity
- suppression of cell viability in combination (SK-MEL-2 cells; in combination with bortezomib): synergistically suppressed the viability
- deglycosylation of NFE2L1 (NFE2L1; 200 μM): clear retention of N-glycans on NFE2L1

Molecule: CCCNC(=O)[C@H](CC(=O)N[C@@H]1O[C@H](COC(C)=O)[C@@H](OC(C)=O)[C@H](OC(C)=O)[C@H]1NC(C)=O)NC(=O)/C=C/CN(C)C [NM-354, (2R,3S,4R,5R,6R)-5-Acetamido-2-(acetoxymethyl)-6-((S)-3-((E)-4-(dimethylamino)but-2-enamido)-4-oxo-4-(propylamino)butanamido)tetrahydro-2H-pyran-3,4-diyl diacetate]
- NGLY1 activity in the deglycosylation of denatured RNase B (human NGLY1; [2]): suppressed its activity

Molecule: Cc1ccc(S(=O)(=O)/C=C/C(=O)N[C@@H](CCc2ccccc2)C(=O)NCCC(C)C)cc1 [WRR139, reference compound]
- NGLY1 activity in the deglycosylation of denatured RNase B (human NGLY1; 2-hour reaction, 5 μM): suppressed its activity

Molecule: COC(=O)C[C@H](NC(=O)[C@H](C)NC(=O)[C@@H](NC(=O)OCc1ccccc1)C(C)C)C(=O)CF [Z-VAD-fmk, reference compound] (Cbz-Val-Ala-Asp(OMe)-CH2F)
- NGLY1 activity in the deglycosylation of denatured RNase B (human NGLY1; 2-hour reaction, 20 μM): suppressed its activity
- deglycosylation of NFE2L1 (NFE2L1; 20 μM): altered

Molecule: N.N.[Cl][Pt][Cl] [cisplatin]
- growth and cell death (UACC257 cells): moderate growth inhibition without increase of cell death
- growth and cell death (MALME3M cells): moderate growth inhibition without increase of cell death

B1: NGLY1-shRNA647: NGLY1-targeting shRNA sequence (SEQ ID NO: 6), dox-inducible lentiviral vector (nucleic acid)
DNA: AAAGCAUUACUUCGAGACACUAUAGUGAAGCCACAGAUGUAUAGUGUCUCGAAGUAAUGCUUCU
- expression of NGLY1 (NGLY1): largely suppressed
- cell morphology [1]: morphology of apoptosis
- cell morphology (HepG2 liver cancer cells): morphology of apoptosis
